Results taken from patent US6410573B1, “2,5-substituted benzolsulfonylureas and thioureas methods for the production thereof use thereof and pharmaceutical preparations containing the same” (Aventis Pharma Deutschland GmbH, priority 1998, dated 2002).

Experiments:
[1] = test system: papillary muscle of the guinea pig; assay: Action potential duration (APD90) in the papillary muscle of the guinea pig, shortened by rilmakalim (HOE 234); assay type: cell-based; details: test substance 2 μmol/l, 60 min after its addition; rilmakalim (HOE 234) 1 μg/ml given 30 min before; starting values 165-191, after HOE 234 alone 18-37; 37° C., 1 Hz
Excerpt: Test 1: Action potential duration in the papillary muscle of the guinea pig
ATP deficiency states, such as are observed during ischemia in the cardiac muscle cell, lead to a reduction of the action potential duration. They are regarded as one of the causes of so-called reentry arrhythmias, which can cause sudden heart death. The opening of ATP-sensitive potassium channels by the lowering of ATP (adenosine triphosphate) is regarded as causing this.
A standard microelectrode technique was employed for the measurement of the action potential in the papillary muscle of the guinea pig. For this guinea pigs of both sexes were killed by a blow to the head, the hearts were removed, the papillary muscles were separated out and suspended in an organ bath. The organ bath was irrigated with Ringer's solution (136 mmol/l of NaCl, 3.3 mmol/l of KCl, 2.5 mmol/l of CaCl2, 1.2 mmol/l of KH2PO4, 1.1 mmol/l of MgSO4, 5.0 mmol/l of glucose, 10.0 mmol/l of N-(2-hydroxyethyl)piperazine-N′-(2-ethanesulfonic acid) (HEPES), pH adjusted to 7.4 with NaOH) and aerated with 100% oxygen at a temperature of 37° C. The muscle was stimulated by means of an electrode using squarewave impulses of 1 V and 1 ms duration and a frequency of 1 Hz. The action potential was derived and recorded by means of a glass microelectrode inserted intracellularly, which is filled with 3 mol/l of KCl solution. The substance to be tested was added to the Ringer's solution in a concentration of 2 μmol/l. The action potential was amplified using an amplifier from Hugo Sachs (March-Hugstetten, Germany) and stored and analyzed by means of a computer. The duration of the action potential was determined at a degree of repolarization of 90% (APD90). The action potential reduction was produced by addition of a solution of the potassium channel opener rilmakalim (HOE 234) (W. Linz, E. Klaus, U. Albus, R. H. A. Becker, D. Mania, H. C. Englert, B. A. Schölkens, Arzneimittelforschung/Drug Research, 42 (II) (1992) 1180-1185) (rilmakalim concentration 1 μg/ml). 30 minutes after the administration of rilmakalim, the action potential duration APD90 was recorded. The test substance was then added and the action potential duration APD90, which was extended again, was recorded after a further 60 minutes. The test substances were added to the bath solution as stock solutions in propanediol.

RINm5F cells = assay: Membrane potential on isolated β cells (whole-cell patch clamp, RINm5F cells); assay type: cell-based; details: 1 μmol/l test substance, diaxozide 100 μmol/l in bath, 34±1° C., control potential before addition −70 to −78 mV
Excerpt: Test 2: Membrane potential on isolated β cells
The mechanism of action of the hypoglycemic sulfonylureas such as, for example, glibenclamide has been elucidated in broad outline. The target organ of the sulfonylureas is the β cell of the pancreas, where they contribute to the release of the hypoglycemic hormone insulin by influencing the electrical potential of the cell membrane. A hypoglycemic sulfonylurea such as, for example, glibenclamide brings about a depolarization of the cell membrane, which leads to a […] influx of calcium ions and as a consequence of this to insulin release. The extent ΔU of this depolarization of the cell membrane by the test substances was determined on insulin-secreting RINm5F cells, a pancreas tumor cell line. The potency of a compound in this model predicts the extent of the […] potential of this compound.
Cell cultures of RINm5F cells: RINm5F cells were cultured at 37° C. in RPMI 1640 culture medium (Flow), to which 11 mmol/l of glucose, 10% (v/v) fetal calf serum, 2 mmol/l of glutamine and 50 μg/ml of gentamycin were added. The cells were inoculated onto petri dishes every 2 to 3 days and kept in a humidified atmosphere of […] and 5% CO2 at a temperature of 37° C. For the investigations, the cells were isolated by incubation (about 3 min) in a Ca^2+-free medium which contains 0.25% trypsin.
Measuring method: in a Plexiglas chamber, isolated RINm5F cells were applied to an inverted microscope which was equipped with differential interference contrast optics. Under visual control (400× magnification), a fire-polished micropipette having an opening diameter of approximately 1 μm was placed onto the cell with the aid of a micromanipulator. By applying a slight underpressure to the interior of the patch pipette, a high electrical seal between the glass and cell membrane was first produced. Then, by increasing the underpressure, the membrane spot under the measuring pipette was torn off. In this whole-cell configuration, the cell potential was recorded with the aid of a patch clamp amplifier (L/M EPC 7, List, Darmstadt) and the whole-cell current was measured by applying a voltage ramp. […] Stock solutions of the test substances in a concentration of 100 mmol/l in DMSO and corresponding dilutions in an NaCl solution were prepared. DMSO on its own had no effect on the cell potential. In order to stabilize the cell potential, diaxozide (100 μmol/l), an opener for ATP-sensitive K^+ channels, was added to the bath solution in all experiments. All experiments were carried out at 34±1° C.

Row | SMILES | APD90 +HOE 234, 30 min., then +substance, 60 min. [1] | ΔU (depolarization of the cell potential) (RINm5F cells) | melting point
1 | CNC(=S)NS(=O)(=O)c1cc(CCNC(=O)c2cc(Cl)ccc2OC)ccc1-c1ccccc1 [Example 1, 5-(2-(5-Chloro-2-methoxybenzamido)ethyl)-N-(methylaminothiocarbonyl)-2-phenylbenzenesulfonamide] | 134 milliseconds | 6 mV | 
2 | CCNC(=S)NS(=O)(=O)c1cc(CCNC(=O)c2cc(Cl)ccc2OC)ccc1-c1ccccc1 [Example 3, 5-(2-(5-Chloro-2-methoxybenzamido)ethyl)-N-(ethylaminothiocarbonyl)-2-phenylbenzenesulfonamide] |  |  | 168 to 170 °C
3 | CCNC(=O)NS(=O)(=O)c1cc(CCNC(=O)c2cc(Cl)ccc2OC)ccc1-c1ccccc1 [Example 4, 5-(2-(5-Chloro-2-methoxybenzamido)ethyl)-N-(ethylaminocarbonyl)-2-phenylbenzenesulfonamide] | 81 milliseconds |  | 
4 | CNC(=S)NS(=O)(=O)c1cc(CCNC(=O)c2cc(Cl)ccc2OC)ccc1-c1ccc(F)cc1 [Example 7, 5-(2-(5-Chloro-2-methoxybenzamido)ethyl)-2-(4-fluorophenyl)-N-(methyl-aminothiocarbonyl)benzenesulfonamide] | 71 milliseconds |  | 
5 | CNC(=S)NS(=O)(=O)c1cc(CCNC(=O)c2cc(Cl)ccc2OC)ccc1-c1ccc(Cl)cc1 [Example 8, 5-(2-(5-Chloro-2-methoxybenzamido)ethyl)-2-(4-chlorophenyl)-N-(methyl-aminothiocarbonyl)benzenesulfonamide] |  |  | 189 to 192 °C
6 | CNC(=S)NS(=O)(=O)c1cc(CCNC(=O)c2cc(Cl)ccc2OC)ccc1-c1ccc(OC)cc1 [Example 9, 5-(2-(5-Chloro-2-methoxybenzamido)ethyl)-2-(4-methoxyphenyl)-N-(methylaminothiocarbonyl)benzenesulfonamide] |  | 15 mV | 185 to 188 °C
7 | CCNC(=S)NS(=O)(=O)c1cc(CCNC(=O)c2cc(Cl)ccc2OC)ccc1-c1ccc(SC)cc1 [Example 10, 5-(2-(5-Chloro-2-methoxybenzamido)ethyl)-N-(ethylaminothiocarbonyl)-2-(4-methylthiophenyl)benzenesulfonamide] |  |  | 178 to 179 °C
8 | CNC(=S)NS(=O)(=O)c1cc(CCNC(=O)c2cc(Cl)ccc2OC)ccc1-c1cccs1 [Example 12, 5-(2-(5-Chloro-2-methoxybenzamido)ethyl)-N-(methylaminothiocarbonyl)-2-(2-thienyl)benzenesulfonamide] |  | 5 mV | 189 to 191 °C
9 | CNC(=O)NS(=O)(=O)c1cc(CCNC(=O)c2cc(Cl)ccc2OC)ccc1-c1cccs1 [Example 13, 5-(2-(5-Chloro-2-methoxybenzamido)ethyl)-N-(methylaminocarbonyl)-2-(2-thienyl)benzenesulfonamide] | 72 milliseconds |  | 
10 | CNC(=S)NS(=O)(=O)c1cc(CCNC(=O)c2cc(Cl)ccc2OC)ccc1-c1ccco1 [Example 14, 5-(2-(5-Chloro-2-methoxybenzamido)ethyl)-2-(2-furyl)-N-(methylaminothiocarbonyl)benzenesulfonamide] |  | 7 mV | 145 to 146 °C
11 | CNC(=O)NS(=O)(=O)c1cc(CCNC(=O)c2cc(Cl)ccc2OC)ccc1-c1ccco1 [Example 15, 5-(2-(5-Chloro-2-methoxybenzamido)ethyl)-2-(2-furyl)-N-(methylaminocarbonyl)benzenesulfonamide] | 83 milliseconds |  | 
12 | CNC(=S)NS(=O)(=O)c1cc(CCNC(=O)c2cc(Cl)ccc2OC)ccc1-c1ccccn1 [Example 16, 5-(2-(5-Chloro-2-methoxybenzamido)ethyl)-N-(methylaminothiocarbonyl)-2-(2-pyridyl)benzenesulfonamide] | 153 milliseconds |  | 
13 | CNC(=O)NS(=O)(=O)c1cc(CCNC(=O)c2cc(Cl)ccc2OC)ccc1-c1ccccn1 [Example 17, 5-(2-(5-Chloro-2-methoxybenzamido)ethyl)-N-(methylaminocarbonyl)-2-(2-pyridyl)benzenesulfonamide] |  |  | 160 °C
14 | C=CCc1ccc(CCNC(=O)c2cc(Cl)ccc2OC)cc1S(=O)(=O)NC(=O)NC [Example 18, 2-Allyl-5-(2-(5-chloro-2-methoxybenzamido)ethyl)-N-(methylaminocarbonyl)benzenesulfonamide] |  |  | 124 to 126 °C
15 | C#Cc1ccc(CCNC(=O)c2cc(Cl)ccc2OC)cc1S(=O)(=O)NC(=S)NC [Example 19, 5-(2-(5-Chloro-2-methoxybenzamido)ethyl)-2-ethynyl-N-(methylaminothiocarbonyl)benzenesulfonamide] |  |  | 224 to 225 °C
16 | CNC(=S)NS(=O)(=O)c1cc(CCNC(=O)c2cc(Cl)ccc2OC)ccc1Sc1ccccc1 [Example 20, 5-(2-(5-Chloro-2-methoxybenzamido)ethyl)-N-(methylaminothiocarbonyl)-2-(phenylsulfanyl)benzenesulfonamide] | 139 milliseconds |  | 
17 | COc1ccc(Cl)cc1C(=O)NCCc1ccc(S(=O)(=O)NC(=O)NC2CCCCC2)cc1 [Glibenclamide, reference compound] |  | 47 mV | 
